The record followed here is patent publication US20060211726A1, “Ascomycin derivatives for combination treatment with tazorotene” (priority 2005, published 2006).

The test system of the series is psoriasis. The experiment in a line: Topical treatment of a person suffering from psoriasis. Type of series: in vivo. The conditions noted are these: 0.1% Protopic ointment twice a day plus 0.1% tazarotene (Tazorac) once a day in the same person; compared with 0.1% tazarotene alone once a day or 0.1% tacrilomus alone twice a day. On the procedure:
A composition according to one of examples 1-3 is administered topically once a day to person suffering from psoriasis.
Tacrilomus is administered twice a day as 0.1% Protopic® ointment to a person suffering from psoriasis. The same person receives 0.1% tazarotene as Tazorac® ointment once a day.

With `C=CC[C@@H]1/C=C(\C)C[C@H](C)C[C@H](OC)[C@H]2O[C@@](O)(C(=O)C(=O)N3CCCC[C@H]3C(=O)O[C@H](/C(C)=C/[C@@H]3CC[C@@H](O)[C@H](OC)C3)[C@H](C)[C@@H](O)CC1=O)[C@H](C)C[C@@H]2OC` [Tacrilomus, tacrolimus], the “Improvement of symptoms (efficacy)” value was “greater efficacy” and the side effects entry is reported as “fewer side effects”.
